Laboratory results reported in ChEMBL document CHEMBL5365420, “Kinetics, Thermodynamics, and Structural Effects of Quinoline-2-Carboxylates, Zinc-Binding Inhibitors of New Delhi Metallo-β-lactamase-1 Re-sensitizing Multidrug-Resistant Bacteria for Carbapenems” (J Med Chem, 2023).

Key:
Escherichia coli [1] = assay: Antibacterial activity against clinical isolate Escherichia coli 371/12 expressing blaNDM-7 co-expressing blaCTX-M-15 and blaOXA-1 assessed as meropenem MIC at 72.88 uM measured after 20 hrs by broth microdilution assay (reference value: 24 mg/L); format: functional
Escherichia coli [2] = assay: Antibacterial activity against clinical isolate Escherichia coli K12 J53-ST10 699/15 expressing blaNDM-1 assessed as meropenem MIC at 36.44 uM measured after 20 hrs by broth microdilution assay (reference value: 12 mg/L); format: functional
[3] = target: T1, 72 kDa type IV collagenase (Homo sapiens, UniProt P08253); assay: Inhibition of human recombinant MMP-2 CD at 10 uM using OMNIMMP as substrate incubated for 30 mins by fluorescence based analysis relative to control
Target sequence in this assay (P08253 110-660 limits assumed): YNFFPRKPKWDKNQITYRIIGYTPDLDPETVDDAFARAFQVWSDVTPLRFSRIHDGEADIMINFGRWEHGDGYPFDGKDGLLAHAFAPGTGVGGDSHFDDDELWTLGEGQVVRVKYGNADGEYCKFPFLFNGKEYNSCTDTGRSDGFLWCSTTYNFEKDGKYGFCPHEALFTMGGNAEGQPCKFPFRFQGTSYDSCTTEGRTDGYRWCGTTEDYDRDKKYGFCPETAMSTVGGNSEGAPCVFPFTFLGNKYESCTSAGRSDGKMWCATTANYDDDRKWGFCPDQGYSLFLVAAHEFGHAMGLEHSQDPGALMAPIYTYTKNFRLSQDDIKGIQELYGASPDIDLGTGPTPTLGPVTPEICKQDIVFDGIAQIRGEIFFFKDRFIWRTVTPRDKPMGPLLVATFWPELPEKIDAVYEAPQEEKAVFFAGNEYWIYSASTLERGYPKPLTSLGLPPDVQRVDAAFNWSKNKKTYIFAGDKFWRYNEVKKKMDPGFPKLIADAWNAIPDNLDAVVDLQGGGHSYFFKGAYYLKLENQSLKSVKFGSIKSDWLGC

[4] = target: T1, 72 kDa type IV collagenase; assay: Binding affinity to human recombinant MMP-2 CD assessed as inhibition constant using OMNIMMP as substrate incubated for 30 mins by fluorescence based analysis
Target sequence in this assay (P08253 whole entry): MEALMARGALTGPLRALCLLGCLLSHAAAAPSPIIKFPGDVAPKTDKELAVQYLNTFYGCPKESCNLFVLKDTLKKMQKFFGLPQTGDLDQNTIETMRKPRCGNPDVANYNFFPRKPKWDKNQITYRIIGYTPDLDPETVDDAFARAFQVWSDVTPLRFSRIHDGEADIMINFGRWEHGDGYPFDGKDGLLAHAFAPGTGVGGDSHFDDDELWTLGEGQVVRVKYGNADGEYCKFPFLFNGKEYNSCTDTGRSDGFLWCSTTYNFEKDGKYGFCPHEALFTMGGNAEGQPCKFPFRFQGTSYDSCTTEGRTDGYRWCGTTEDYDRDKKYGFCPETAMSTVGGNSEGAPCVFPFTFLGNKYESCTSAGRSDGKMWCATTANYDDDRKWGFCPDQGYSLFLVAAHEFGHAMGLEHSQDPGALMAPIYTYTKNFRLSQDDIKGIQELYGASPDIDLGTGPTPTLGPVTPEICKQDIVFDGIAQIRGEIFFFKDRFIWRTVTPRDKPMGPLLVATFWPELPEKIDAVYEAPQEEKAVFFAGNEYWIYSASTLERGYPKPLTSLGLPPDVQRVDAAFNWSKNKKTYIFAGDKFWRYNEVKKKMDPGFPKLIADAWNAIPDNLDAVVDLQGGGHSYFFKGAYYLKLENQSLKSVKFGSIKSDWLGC

Escherichia coli [5] = assay: Antibacterial activity against clinical isolate Escherichia coli K12 J53-ST10 699/15 expressing blaNDM-1 assessed as meropenem MIC at 72.88 uM measured after 20 hrs by broth microdilution assay (reference value: 24 mg/L); format: functional
[6] = Inhibition of IMP-1 (unknown origin) expressed in Escherichia coli BL21-DE3 incubated for 15 mins by absorbance based microplate reader analysis; parameters: species or system Bacteria
[7] = target: Metallo-beta-lactamase type 2 (Bacteria) (UniProt C7C422)
Chain of Metallo-beta-lactamase type 2 (Bacteria) (C7C422 whole entry): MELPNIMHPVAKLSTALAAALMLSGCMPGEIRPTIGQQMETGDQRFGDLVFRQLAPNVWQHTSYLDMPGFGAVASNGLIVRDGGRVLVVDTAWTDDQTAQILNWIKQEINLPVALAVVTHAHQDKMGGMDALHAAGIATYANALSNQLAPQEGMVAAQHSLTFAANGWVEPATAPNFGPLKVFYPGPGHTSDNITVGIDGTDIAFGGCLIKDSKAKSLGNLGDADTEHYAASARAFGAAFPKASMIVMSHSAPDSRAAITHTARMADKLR
Description: Binding affinity to C-terminal 6His-tagged full length truncated NDM-1 (unknown origin) expressed in Escherichia coli BL21-DE3 assessed as change in enthalpy in presence of EDTA by isothermal titration calorimetric analysis

[8] = target: Metallo-beta-lactamase type 2 (Bacteria) (UniProt C7C422); remark: listed apart in the source
Description: Binding affinity to C-terminal 6His-tagged full length truncated NDM-1 (unknown origin) expressed in Escherichia coli BL21-DE3 assessed as change in enthalpy in presence of zinc sulfate by isothermal titration calorimetric analysis

[9] = target: Metallo-beta-lactamase type 2 (Bacteria) (UniProt C7C422); remark: listed apart in the source
Description: Binding affinity to C-terminal 6His-tagged full length truncated NDM-1 (unknown origin) expressed in Escherichia coli BL21-DE3 assessed as change in Gibbs free energy by isothermal titration calorimetric analysis

[10] = target: Histone deacetylase 1 (Homo sapiens) (UniProt Q13547); assay: Inhibition of C-terminal 6His/FLAG-tagged human recombinant full-length HDAC1 (1 to 482(end) residues) at 10 uM using Boc-Lys-(Ac)-AMC as substrate incubated for 10 mins followed by substrate addition measured after 1 hr by fluorescence based analysis relative to control; settings: time 70.0 min
Chain of Histone deacetylase 1 (Homo sapiens) (Q13547 whole entry): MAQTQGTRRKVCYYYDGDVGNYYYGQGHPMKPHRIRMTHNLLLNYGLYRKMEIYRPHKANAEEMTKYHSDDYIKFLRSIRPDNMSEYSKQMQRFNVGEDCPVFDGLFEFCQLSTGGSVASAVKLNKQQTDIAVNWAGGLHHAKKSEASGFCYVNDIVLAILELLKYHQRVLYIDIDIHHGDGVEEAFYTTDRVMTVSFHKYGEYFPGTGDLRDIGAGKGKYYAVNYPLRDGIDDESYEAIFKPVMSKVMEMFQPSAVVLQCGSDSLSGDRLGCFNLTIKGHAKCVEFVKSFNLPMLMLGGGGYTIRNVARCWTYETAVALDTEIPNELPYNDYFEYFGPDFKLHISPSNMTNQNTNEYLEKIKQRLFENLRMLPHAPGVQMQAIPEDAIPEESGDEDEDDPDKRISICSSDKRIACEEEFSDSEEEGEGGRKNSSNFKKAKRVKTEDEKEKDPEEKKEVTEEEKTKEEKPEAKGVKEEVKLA

Acinetobacter baumannii [11] = assay: Antibacterial activity against clinical isolate Acinetobacter baumannii IC 19/09 expressing blaNDM-1 co-expressing blaOXA-64 assessed as meropenem MIC at 36.44 uM measured after 20 hrs by broth microdilution assay (reference value: 12 mg/L); format: functional
Escherichia coli [12] = assay: Antibacterial activity against clinical isolate Escherichia coli K12 J53-ST10 618/15 expressing blaNDM-1 assessed as meropenem MIC at 36.44 uM measured after 20 hrs by broth microdilution assay (reference value: 12 mg/L); format: functional
Escherichia coli [13] = assay: Antibacterial activity against clinical isolate Escherichia coli K12 J53-ST10 684/18 expressing blaNDM-1 co-expressing blaCMY-2 and blaOXA-10 assessed as meropenem MIC at 72.88 uM measured after 20 hrs by broth microdilution assay (reference value: 24 mg/L); format: functional
Acinetobacter baumannii [14] = assay: Antibacterial activity against clinical isolate Acinetobacter baumannii IC 19/09 expressing blaNDM-1 co-expressing blaOXA-64 assessed as meropenem MIC at 72.88 uM measured after 20 hrs by broth microdilution assay (reference value: 24 mg/L); format: functional
Klebsiella pneumoniae [15] = assay: Antibacterial activity against clinical isolate Klebsiella pneumoniae ST1493/10 expressing blaNDM-1 co-expressing blaCMY-2like/blaTEM-1/blaCTX-M-15/blaSHV-28/blaOXA-1 and blaOXA-9 assessed as meropenem MIC at 36.44 uM measured after 20 hrs by broth microdilution assay (reference value: 12 mg/L); format: functional
Klebsiella pneumoniae [16] = assay: Antibacterial activity against clinical isolate Klebsiella pneumoniae ST23213/19 expressing blaNDM-1 co-expressing blaOXA-48/blaSHV-11/blaCTX-M-15 and blaOXA-1 assessed as meropenem MIC at 36.44 uM measured after 20 hrs by broth microdilution assay (reference value: 12 mg/L); format: functional
Klebsiella pneumoniae [17] = assay: Antibacterial activity against clinical isolate Klebsiella pneumoniae 62/07 expressing blaVIM-19 co-expressing blaSHV-1/blaCTX-M-14 and blaCMY-4 assessed as meropenem MIC at 36.44 uM measured after 20 hrs by broth microdilution assay (reference value: 12 mg/L); format: functional
Escherichia coli [18] = assay: Antibacterial activity against clinical isolate Escherichia coli 371/12 expressing blaNDM-7 co-expressing blaCTX-M-15 and blaOXA-1 assessed as meropenem MIC at 36.44 uM measured after 20 hrs by broth microdilution assay (reference value: 12 mg/L); format: functional
Klebsiella pneumoniae [19] = assay: Antibacterial activity against clinical isolate Klebsiella pneumoniae 62/07 expressing blaVIM-19 co-expressing blaSHV-1/blaCTX-M-14 and blaCMY-4 assessed as meropenem MIC at 72.88 uM measured after 20 hrs by broth microdilution assay (reference value: 24 mg/L); format: functional
Klebsiella pneumoniae [20] = assay: Antibacterial activity against clinical isolate Klebsiella pneumoniae ST23213/19 expressing blaNDM-1 co-expressing blaOXA-48/blaSHV-11/blaCTX-M-15 and blaOXA-1 assessed as meropenem MIC at 72.88 uM measured after 20 hrs by broth microdilution assay (reference value: 24 mg/L); format: functional
[21] = target: Carbonic anhydrase 2 (Homo sapiens) (UniProt P00918); assay: Inhibition of human CA2 at 10 uM using pNPA as substrate preincubated for 15 mins followed by substrate by absorbance based analysis relative to control
Escherichia coli [22] = assay: Antibacterial activity against clinical isolate Escherichia coli ST1012/10 expressing blaNDM-1 co-expressing blaTEM-1/blaCTX-M-15/blaOXA-1 and blaOXA-2 assessed as meropenem MIC at 36.44 uM measured after 20 hrs by broth microdilution assay (reference value: 12 mg/L); format: functional
Escherichia coli [23] = assay: Antibacterial activity against clinical isolate Escherichia coli K12 J53-ST10 696/17 expressing blaNDM-1 co-expressing blaCMY-4 assessed as meropenem MIC at 36.44 uM measured after 20 hrs by broth microdilution assay (reference value: 12 mg/L); format: functional
[24] = target: T2, Metallo-beta-lactamase type 2 (Bacteria, UniProt C7C422)
T2 sequence (C7C422 whole entry): as the sequence (C7C422 whole entry) above
Description: Binding affinity to C-terminal 6His-tagged full length biotin-labeled NDM-1 (unknown origin) expressed in Escherichia coli BL21-DE3 assessed as dissociation constant by BLI assay

Klebsiella pneumoniae [25] = assay: Antibacterial activity against clinical isolate Klebsiella pneumoniae 50/20 expressing blaNDM-5 co-expressing blaTEM-1 and blaSHV-1 assessed as meropenem MIC at 72.88 uM measured after 20 hrs by broth microdilution assay (reference value: 24 mg/L); format: functional
Klebsiella pneumoniae [26] = assay: Antibacterial activity against clinical isolate Klebsiella pneumoniae 50/11 expressing blaNDM-1 co-expressing blaTEM-1/blaSHV-28/blaTEM-1/blaCTX-M-15 and blaOXA-1 assessed as meropenem MIC at 72.88 uM measured after 20 hrs by broth microdilution assay (reference value: 24 mg/L); format: functional
[27] = Inhibition of VIM-2 (unknown origin) incubated for 15 mins by absorbance based microplate reader analysis; parameters: species or system Bacteria
[28] = target: T2, Metallo-beta-lactamase type 2; remark: listed apart in the source
Description: Inhibition of C-terminal 6His-tagged full length NDM-1 (unknown origin) expressed in Escherichia coli BL21-DE3 using nitrocefin as substrate incubated for 15 mins followed by substrate addition by absorbance based microplate reader analysis

O=C(O)c1ccc2cccc(NS(=O)(=O)c3ccccn3)c2n1
MIC (Escherichia coli [1]): ≤ 0.125 µg/mL | MIC (Escherichia coli [2]): 0.5 µg/mL | inhibition [3]: > 90% | Ki [4]: 5.78 µM | MIC (Escherichia coli [5]): ≤ 0.125 µg/mL | IC50 [6]: 370 nM | deltaH [7]: -40 kJ/mol | deltaH [8]: -111 kJ/mol | deltaG [9]: -39.9 kJ/mol | inhibition [10]: < 5% | MIC (Acinetobacter baumannii [11]): 4 µg/mL | MIC (Escherichia coli [12]): ≤ 0.125 µg/mL | MIC (Escherichia coli [13]): ≤ 0.125 µg/mL | MIC (Acinetobacter baumannii [14]): 1 µg/mL | MIC (Klebsiella pneumoniae [15]): 2 µg/mL | MIC (Klebsiella pneumoniae [16]): 16 µg/mL | MIC (Klebsiella pneumoniae [17]): 2 µg/mL | MIC (Escherichia coli [18]): 8 µg/mL | MIC (Klebsiella pneumoniae [19]): 0.25 µg/mL | MIC (Klebsiella pneumoniae [20]): 16 µg/mL | inhibition [21]: < 5% | MIC (Escherichia coli [22]): ≤ 0.125 µg/mL | MIC (Escherichia coli [23]): ≤ 0.125 µg/mL | Kd [24]: 14.1 µM | MIC (Klebsiella pneumoniae [25]): ≤ 0.125 µg/mL | MIC (Klebsiella pneumoniae [26]): ≤ 0.125 µg/mL | IC50 [27]: 240 nM | IC50 [28]: 290 nM
